{
  "source": "patent US7618989B2",
  "about": "“Tricyclic oxazolidone derivatives useful as PR modulators” (Wyeth, priority 2006, dated 2009)",
  "data": [
    {"test_system": "alkaline phosphatase activity in T47D cells", "test": "Effects of progestins and antiprogestins on alkaline phosphatase activity in T47D cells", "type": "cell-based", "conditions": "Homo sapiens, antagonist mode, in the presence of 1 nM progesterone, 24 h incubation, read-out: T47D Alkaline Phosphatase Activity IC50 (nM) or % inhibition", "protocol": "(1) Effects of Progestins and Antiprogestins on Alkaline Phosphatase Activity in T47D Cells.\n• PURPOSE: To identify progestins or antiprogestins by determining a compound's effect on alkaline phosphatase activity in T47D cells. A. Reagents:\nCulture medium: • DMEM:F12 (1:1) (GIBCO, BRL) supplemented with 5% (v/v) charcoal stripped fetal bovine serum (not heat-inactivated), 100 U/mL penicillin, 100 μg/mL streptomycin, and 2 mM the GlutaMax™ reagent (GIBCO, BRL).\nAlkaline phosphatase assay buffer: • I. 0.1M Tris-HCl, pH 9.8, containing 0.2% the Triton® X-100 reagent • II. 0.1M Tris-HCl, pH 9.8, containing 4 mM p-nitrophenyl phosphate (Sigma). B. Cell Culture and Treatment:\nFrozen T47D cells were thawed in a 37° C. water bath and diluted to 280,000 cells/mL in culture medium. To each well in a 96-well plate (Falcon, Becton Dickinson Labware), 180 μL of diluted cell suspension was added.\nTwenty μL of reference or test compounds diluted in the culture medium was then added to each well. When testing for progestin antagonist activity, reference antiprogestins or test compounds were added in the presence of 1 nM progesterone. The cells were incubated at 37° C. in a 5% CO2/humidified atmosphere for 24 h.\nNOTE: For high throughput screening, one concentration of each compound was tested at 0.3 μg/mL. Based on an average molecular weight of 300 g/mol for the compounds in the library, the concentration was approximately 1 μM. Subsequently, active compounds were tested in dose response assays to determine EC50 and IC50. C. Alkaline Phosphatase Enzyme Assay:\nAt the end of treatment, the medium was removed from the plate. Fifty μL of assay buffer I was added to each well. […]\nFor reference and test compounds, a dose response curve was generated for dose (X-axis) vs. the rate of enzyme reaction (slope) (Y-axis). […] EC50 or IC50 values were calculated from the retransformed values. […]\nProgesterone and trimegestone were reference progestins and RU486 was the reference antiprogestin. All reference compounds were run in full dose response curves and the EC50 and IC50 values were calculated.", "units": {"IC50": "nM"}, "values": [
      {"molecule": "CCC1(CC)COC(=O)N1c1nc2c(s1)CCc1cc(C#N)ccc1-2", "note": "[Example 5, 2-(4,4-Diethyl-2-oxo-1,3-oxazolidin-3-yl)-4,5-dihydronaphtho[1,2-d][1,3]thiazole-7-carbonitrile]", "IC50": 5},
      {"molecule": "CC1(C)COC(=O)N1c1nc2c(ccc3cc(C#N)ccc32)s1", "note": "[Example 7, 2-(4,4-Dimethyl-2-oxo-1,3-oxazolidin-3-yl)naphtho[1,2-d][1,3]thiazole-7carbonitrile]", "IC50": 100},
      {"molecule": "CC1(C)COC(=O)N1c1nc2c(s1)CCc1cc(C#N)ccc1-2", "note": "[Example 6, 2-(4,4-Dimethyl-2-oxo-1,3-oxazolidin-3-yl)-4,5-dihydronaphtho[1,2-d][1,3]thiazole-7-carbonitrile]", "IC50": 27.9}
    ]},
    {"test_system": "not given", "test": "not given", "conditions": "not given", "units": {"melting point": "°C"}, "values": [
      {"molecule": "CCC1(CC)COC(=O)N1c1nc(-c2ccc(C#N)cc2)cs1", "note": "[Example 2, 4-[2-(4,4-Diethyl-2-oxo-1,3-oxazolidin-3-yl)-1,3-thiazol-4-yl]benzonitrile]", "melting point": "145 to 147"},
      {"molecule": "CC1(C)COC(=O)N1c1nc(-c2cccc(C#N)c2)cs1", "note": "[Example 3, 3-[2-(4,4-dimethyl-2-oxo-1,3-oxazolidin-3-yl)-1,3-thiazol-4-yl]benzonitrile]", "melting point": "181 to 183"},
      {"molecule": "C[C@@H]1COC(=O)N1c1nc(-c2ccc(Br)cc2)cs1", "note": "[Example 1, (4R)-3-[4-(4-Bromophenyl)-1,3-thiazol-2-yl]-4-methyl-1,3-oxazolidin-2-one]", "melting point": "197 to 199"}
    ]}
  ]
}
